The values below come from ChEMBL document CHEMBL5244260, “Aldose reductase and protein tyrosine phosphatase 1B inhibitors as a promising therapeutic approach for diabetes mellitus” (Eur J Med Chem, 2020).

SMILES strings stand for the structures.

The target in experiment [1] is T1, Tyrosine-protein phosphatase non-receptor type 1 (Homo sapiens, UniProt P18031).
T1 sequence (P18031 whole entry): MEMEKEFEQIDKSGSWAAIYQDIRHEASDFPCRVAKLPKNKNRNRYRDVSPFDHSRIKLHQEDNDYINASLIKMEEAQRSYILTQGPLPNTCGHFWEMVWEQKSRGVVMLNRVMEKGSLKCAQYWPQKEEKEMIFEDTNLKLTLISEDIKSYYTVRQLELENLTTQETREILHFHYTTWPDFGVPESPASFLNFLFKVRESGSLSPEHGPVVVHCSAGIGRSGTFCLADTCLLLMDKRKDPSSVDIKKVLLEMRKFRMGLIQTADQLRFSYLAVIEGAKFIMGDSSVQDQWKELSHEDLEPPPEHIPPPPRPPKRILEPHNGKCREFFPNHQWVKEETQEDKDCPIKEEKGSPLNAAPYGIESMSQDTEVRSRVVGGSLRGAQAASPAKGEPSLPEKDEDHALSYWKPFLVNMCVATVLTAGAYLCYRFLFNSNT
The experiment can be described thus: Inhibition of PTP1B (unknown origin).

For experiment [2], the species on record is Homo sapiens. Put plainly: Selectivity ratio of IC50 for human PTP1B (1 to 321 residues) to IC50 for human CD45 (564 to […] residues).
Experiment [3] addresses T1, Tyrosine-protein phosphatase non-receptor type 1. The experiment can be described thus: Inhibition of human PTP1B (1 to 321 residues) expressed in Escherichia coli using FDP as substrate.
For experiment [4] the target is unchanged. Put plainly: Inhibition of PTP1B (unknown origin) using OMFP as substrate by fluorescence assay.
A short description of experiment [5]: Inhibition of ALR2 in calf lens using D,L-glyceraldehyde as substrate in presence of NADPH by spectrophotometric assay. Type of experiment: tissue-based, Bos taurus.
Experiment [6] is filed under the species Homo sapiens. The experiment can be described thus: Selectivity ratio of Ki for PTP1B (unknown origin) to Ki for TCPTP (unknown origin).

A word on the IC50: it is the midpoint of a concentration-inhibition curve. Turning to `CC(C)(C)OC(=O)COc1ccc(CC2=C(c3c[nH]c4ccccc34)c3ccccc3C(=O)C2=O)cc1`, inhibition in experiment [1] was half-maximal at 650 nM (IC50).

Take `COC(=O)C(Cc1ccc(C(F)(F)P(=O)(O)O)cc1)(Cc1ccc(C(F)(F)P(=O)(O)O)cc1)C(=O)OCc1ccccc1`: the Ratio IC50 in experiment [2] was 250. In experiment [3], this molecule showed a half-inhibitory concentration (IC50) of 40 nM.

With `CCCCCCCCCCCCCCOc1ccccc1NC(=O)c1c(C(=O)O)cc(Cl)c(Cl)c1Cl`, the IC50 in experiment [1] worked out at 180 nM.

In turn, `O=[N+]([O-])c1cc(S(=O)(=O)C(F)(F)F)ccc1Oc1ccc(S(=O)(=O)c2ccc(Oc3ccc(S(=O)(=O)C(F)(F)F)cc3[N+](=O)[O-])cc2)cc1` gave a concentration for half-maximal inhibition (IC50) in experiment [1] of 400 nM.

With `CCCCCCCCc1ccc(-n2c(C)ccc2-c2ccc(O[C@@H](Cc3ccccc3)C(=O)O)cc2)cc1`, the midpoint of inhibition in experiment [1], the IC50, lay at 90 nM.

In experiment [1], `CCCCCCCCCCCCCCOc1ccccc1NC(=O)c1cccc(F)c1C(=O)O` displayed an IC50 of 106 nM.

On to `CCCCCCCC/C(=C\Cn1oc(=O)[nH]c1=O)c1cccc(OCc2nc(-c3ccc(C(F)(F)F)cc3)oc2C)c1`, for which the IC50 in experiment [1] amounted to 400 nM.

Molecule `O=C(c1ccc(CN(Cc2ccc(C(=O)C(F)(F)P(=O)(O)O)cc2)S(=O)(=O)c2ccc(Br)cc2OC(F)(F)F)cc1)C(F)(F)P(=O)(O)O` displayed an IC50 in experiment [4] of 500 nM.

In experiment [1], `CCCCCCCC/C(=C/Cn1oc(=O)[nH]c1=O)c1cccc(OCc2nc(-c3ccc(C(F)(F)F)cc3)oc2C)c1` yielded an IC50 of 200 nM.

`O=[N+]([O-])c1ccccc1Sc1ccc(O)cc1`: in experiment [5], the IC50 stood at 580 nM.

For the molecule `O=C(OCc1ccccc1)C(Cc1ccc(C(F)(F)P(=O)(O)O)cc1)(Cc1ccc(C(F)(F)P(=O)(O)O)cc1)C(=O)OCc1ccccc1`, in experiment [2], the Ratio IC50 is 250. Further, the IC50 in experiment [3] turned out to be 40 nM.

As to `Cc1ccc(S(=O)(=O)N(Cc2ccc(C(=O)C(F)(F)P(=O)(O)O)cc2)Cc2ccc(C(=O)C(F)(F)P(=O)(O)O)cc2)cc1`, inhibition in experiment [4] was half-maximal at 500 nM (IC50).

On to `CCc1cc(CC(NC(C)=O)C(=O)NCCCCC(=O)N[C@@H](CCSC)C(=O)O)ccc1N(C(=O)C(=O)O)c1ccccc1C(=O)O` (some centres not stated), for which inhibition in experiment [1] was half-maximal at 77 nM (IC50).

`CCCCCCCC/C(=C/Cn1oc(=O)n(CC(=O)O)c1=O)c1cccc(OCc2nc(-c3ccc(C(F)(F)F)cc3)oc2C)c1` yielded a 50% inhibitory concentration (IC50) in experiment [1] of 120 nM.

As for `COc1cccc2c1C=CC1CC(=O)N(/C=C/CC(=O)O)N=C21` (configuration not stated), the concentration for half-maximal inhibition (IC50) in experiment [5] was 3900 nM.

In experiment [1], `C/C(=C\Cn1oc(=O)[nH]c1=O)c1cccc(OCc2nc(-c3ccc(C(F)(F)F)cc3)oc2-c2ccccc2)c1` returned an IC50 of 300 nM.

Molecule `Oc1c(Br)cc(-c2ncc(-c3ccccc3)s2)c(Br)c1O` yielded an IC50 in experiment [1] of 540 nM.

`CCCCCNC(=O)[C@H](Cc1cccc(OCC(=O)O)c1C(=O)O)NC(=O)[C@H](Cc1ccccc1)NC(=O)Oc1ccccc1` registered an IC50 in experiment [1] of 870 nM.

The molecule `O=C(O)C(=O)c1sc2c(c1C(=O)O)CCN[C@@H]2CNCc1ccc(O)cc1` registered an IC50 in experiment [1] of 200 nM.

Take `O=C(O)C(=O)Nc1sc2c(c1C(=O)O)CCN(CCc1ccccc1)C2`: in experiment [6], the Ratio Ki turned out to be 2.

Take `CCCCCCCC/C(=C\Cn1oc(=O)n(CC(=O)O)c1=O)c1cccc(OCc2nc(-c3ccc(C(F)(F)F)cc3)oc2C)c1`: in experiment [1], half-maximal inhibition (IC50) required 160 nM.

`CCCCCCCCCCCCCCCCOc1ccccc1NC(=O)c1ncccc1C(=O)O` showed an IC50 in experiment [1] of 140 nM.

Turning to `O=C(O)CCCCO/N=C(\c1cccc(C(F)(F)F)c1)c1ccncn1`, in experiment [5], the IC50 was 12000 nM.

In the case of `CCc1cc(CC(NC(C)=O)C(=O)NCCCCOc2cc(Cl)cc(O)c2C(=O)OC)ccc1N(C(=O)C(=O)O)c1ccccc1C(=O)O` (configuration not stated), the Ratio Ki in experiment [6] came to 6.

For the molecule `O=C(O)CCCCCO/N=C(\c1ccnnc1)c1cccc(C(F)(F)F)c1`, the IC50 in experiment [5] worked out at 10000 nM.

Take `COc1cccc2c1C=CC1CC(=O)N(C/C=C/C(=O)O)N=C21` (configuration not stated): the IC50 in experiment [5] was determined as 4250 nM.

Regarding `O=C(Cc1ccccc1)C(Cc1ccc(C(F)(F)P(=O)(O)O)cc1)(Cc1ccc(C(F)(F)P(=O)(O)O)cc1)C(=O)Cc1ccccc1`, the Ratio IC50 in experiment [2] was determined as 250. This molecule also had an IC50 in experiment [3] of 40 nM.

For the molecule `CC(C)OC(=O)C(Cc1ccc(C(F)(F)P(=O)(O)O)cc1)(Cc1ccc(C(F)(F)P(=O)(O)O)cc1)C(=O)OC(C)C`, in experiment [2], the Ratio IC50 amounted to 250. In experiment [3], the concentration for half-maximal inhibition (IC50) was 40 nM.
